Experimental data reported in PMC5131319, “Occurrence, temporal trends, and half-lives of perfluoroalkyl acids (PFAAs) in occupational workers in China” (Scientific Reports, 2016).
“And” between values parts separate entries of the source, which are not always exact repeats. Equal values may be shown once. Read-outs that look alike come from different tables or passages of the source.

How the values were obtained:
[1] = PFAA concentration in morning urine of occupational workers (HPLC-ESI/MS/MS); format: in vivo, human; conditions: for Urine PFOA concentration / Urine PFOS concentration: individual workers
Experimental: The selected fluorochemical plant (Henxin Chemical Plant) in this study is one of the largest producers of PFOS-related chemicals in China and is located in Yingcheng, Hubei province. Perfluoroalkyl sulfonic acids (PFSAs) and perfluorotertiary amines are synthesized through an electro-chemical fluorination (ECF) process. We collected paired serum and urine samples from the occupational workers in the plant for five consecutive years, and the sampling activities were carried out in Nov. 2008, Nov. 2009, Nov. 2010, Dec. 2011, and Dec 2012, respectively. The Medical Research Ethics Committee, School of Medicine, Jianghan University, approved the ethics of this study, and all methods were performed in accordance with the relevant guidelines and regulations, moreover, all volunteers gave written informed consent. Demographic information of the donors, including gender, age, length of service, and work assignment, was collected with a questionnaire (Table S1). The sampled population included a total of 302 occupational workers, of which there were 89 female and 213 male participants. In total, 302 serum and 274 urine samples were collected.
The participants were told not to eat breakfast before the sampling, and morning urine samples and blood samples were collected. Serum was separated from the blood by centrifugation at 1100 × g at 4 °C for 10 min and then placed on ice. Serum samples were then transferred to our laboratory on the same day and stored in polypropylene containers at −20 °C until analysis.
All pre-treatment methods and instrument analysis of PFAAs in serum and urine samples are based on previous studies with minor modifications (see Supplementary Information)[3][31]. Based on the PFAA profiles in environmental matrices around the same plant in our previous study, only 3 main PFAAs, PFHxS, PFOA, and PFOS, were analyzed in the obtained serum and urine samples. Instrumental analysis of the PFAAs was performed by a HPLC-ESI/MS/MS system (HPLC: Waters 2695, MS: Waters Quattro Premier XE). The limits of detection (LODs) of PFHxS, PFOA, and PFOS were 0.020, 0.063, and 0.018 ng mL^−1 for serum samples and 0.008, 0.025, and 0.007 ng mL^−1 for urine samples, respectively. A procedural blank was performed for every batch of seven samples, and all of the blank levels were below the LODs. […] Details of quality assurance and quality control of the chemical analysis can be found in the Supplementary Information.
Urine samples were pretreated by solid phase extraction. Briefly, 1 mL of urine spiked with 5 ng of internal standard was added to a 15 - mL PP tube and diluted with 13 mL water. The solid phase extraction procedure was then performed following the previously described serum extraction procedure.

[2] = cited from earlier work; for Half-life based on serum concentrations: humans
[3] = cited from earlier work; for Serum concentration, median: workers in another fluorochemical plant in China
[4] = cited from earlier work; for Clrenal, median: fishery employees from Tangxun Lake
[5] = design: method as in PMID 23980546, PMID 12499116, PMID 20236705; conditions: set value; cited from earlier work
[6] = Fabric finishing agent department, N 8
[7] = retired fluorochemical production workers

SMILES	Urine concentration, mean ([1]; All workers, N 274) [ng/mL]	Urine concentration, median ([1]; All workers, N 274) [ng/mL]	Urine concentration, mean ([1]; Electrolytic department, N 67) [ng/mL]	Urine concentration, median ([1]; Electrolytic department, N 67) [ng/mL]	Urine concentration, mean [1, 6] [ng/mL]	Urine concentration, median [1, 6]	Urine concentration, range [1, 6] [ng/mL]	Urine concentration, mean ([1]; Management office, N 76) [ng/mL]	Urine concentration, median ([1]; Management office, N 76) [ng/mL]	Urine concentration, mean ([1]; Research building, N 25) [ng/mL]	Urine concentration, median ([1]; Research building, N 25) [ng/mL]	Urine concentration, mean ([1]; Sulfonation department, N 98) [ng/mL]	Urine concentration, median ([1]; Sulfonation department, N 98) [ng/mL]	Shortest half-life in humans reported in previous studies [2] [years]	Half-life based on serum concentrations [2]	Half-life (GM) [2, 7] [years]	Half-life by daily clearance (GM) ([2]; young females) [years]	Serum concentration, median [3] [ng/mL]	Clrenal, median [4] [mL/day/kg]	Vd (volume of distribution in the human body) [5] [L/kg]	other results
O=S(=O)(O)C(F)(F)C(F)(F)C(F)(F)C(F)(F)C(F)(F)C(F)(F)F [PFHxS, perfluorohexane sulfonate]	3.9	1.7	2.3	1.3	3.5	2.4 ng/mL	0.79 to 7.1	0.93	0.37	1.9	0.97	7.1	3.7	7.3	more than 5 years	7.3	7.8	0.98	0.012	0.23	
O=C(O)C(F)(F)C(F)(F)C(F)(F)C(F)(F)C(F)(F)C(F)(F)C(F)(F)F [PFOA, perfluorooctanoic acid]	4.3	1.9	6.7	3.5	5.1	1.5 ng/mL	1.2 to 22.2	1.5	0.86	1.8	0.92	4.8	2.7	1.2		3.5				0.17	Urine PFOA concentration ([1]; sampling year 2008): 5.18 ng/mL and 0.0901 ng/mL and 0.0937 ng/mL and 0.178 ng/mL and 2.21 ng/mL and 7.6 ng/mL and 0.0489 ng/mL and 3.75 ng/mL and 2.54 ng/mL and 2.88 ng/mL and 0.67 ng/mL and 2.31 ng/mL and 1.03 ng/mL and 1.26 ng/mL and 0.0447 ng/mL and 0.688 ng/mL and 2.24 ng/mL and 2 ng/mL and 1.47 ng/mL and 0.668 ng/mL and 0.709 ng/mL and 0.448 ng/mL and 4.18 ng/mL and 5 ng/mL and 8.09 ng/mL and 7.15 ng/mL and 6.68 ng/mL; Urine PFOA concentration ([1]; sampling year 2009): 3.45 ng/mL and 8.82 ng/mL and 14.8 ng/mL and 1.48 ng/mL and 15.8 ng/mL and 19.6 ng/mL and 6.9 ng/mL and 5.24 ng/mL and 1.14 ng/mL and 1.2 ng/mL and 1.69 ng/mL and 0.889 ng/mL and 4 ng/mL and 0.515 ng/mL and 2.24 ng/mL and 5.25 ng/mL and 1.05 ng/mL and 0.776 ng/mL and 0.537 ng/mL and 12.4 ng/mL and 4.34 ng/mL and 1.12 ng/mL and 15.3 ng/mL and 19.1 ng/mL and 10 ng/mL and 4.81 ng/mL; Serum concentration, geometric mean ([3]; occupational workers of Wang et al.): 1272 ng/mL; Serum concentration, geometric mean ([3]; workers of the 3 M Company): 1130 ng/mL
O=S(=O)(O)C(F)(F)C(F)(F)C(F)(F)C(F)(F)C(F)(F)C(F)(F)C(F)(F)C(F)(F)F [PFOS, perfluorooctanesulfonate]	4.4	1.2	1.8	0.93	0.39	LOD		1.6	0.49	1.4	1.1	8.8	3.0	3.7	more than 5 years	4.8	5.1	33.5	0.010	0.23	Urine PFOS concentration ([1]; sampling year 2008): 0.918 ng/mL and 7.8 ng/mL and 7.66 ng/mL and 0.697 ng/mL and 0.425 ng/mL and 17.2 ng/mL and 3.94 ng/mL and 2.12 ng/mL and 0.736 ng/mL and 0.943 ng/mL and 2.18 ng/mL and 0.818 ng/mL and 0.217 ng/mL and 0.819 ng/mL and 0.291 ng/mL and 4.7 ng/mL and 7.69 ng/mL and 3.07 ng/mL and 0.465 ng/mL and 22.5 ng/mL and 3.09 ng/mL; Urine PFOS concentration ([1]; sampling year 2009): 0.361 ng/mL and 7.85 ng/mL and 2.17 ng/mL and 1.4 ng/mL and 0.831 ng/mL and 1.51 ng/mL and 0.198 ng/mL and 2.73 ng/mL and 0.47 ng/mL and 0.288 ng/mL and 0.078 ng/mL and 0.206 ng/mL and 0.094 ng/mL and 0.171 ng/mL and 0.84 ng/mL and 1.33 ng/mL and 0.14 ng/mL and 1.86 ng/mL and 2.58 ng/mL and 1.8 ng/mL; Urine PFOS concentration ([1]; sampling year 2010): 1.14 ng/mL and 0.258 ng/mL and 0.177 ng/mL and 64.2 ng/mL and 0.884 ng/mL and 0.714 ng/mL and 0.912 ng/mL and 0.855 ng/mL and 2.44 ng/mL and 0.39 ng/mL and 3.98 ng/mL and 0.314 ng/mL and 0.409 ng/mL and 1.98 ng/mL and 0.139 ng/mL and 14 ng/mL and 14.2 ng/mL and 7.14 ng/mL and 3.93 ng/mL; Urine PFOS concentration ([1]; sampling year 2011): 0.14 ng/mL and 0.17 ng/mL and 0.47 ng/mL and 49.90 ng/mL and 2.18 ng/mL and 0.43 ng/mL and 0.54 ng/mL and 5.08 ng/mL and 0.52 ng/mL and 0.29 ng/mL and 0.75 ng/mL and 0.51 ng/mL and 0.04 ng/mL and 0.70 ng/mL and 0.74 ng/mL and 1.78 ng/mL and 14.70 ng/mL and 7.74 ng/mL and 4.91 ng/mL and 2.24 ng/mL; Urine PFOS concentration ([1]; sampling year 2012): 0.7 ng/mL and 26.46 ng/mL and 0.46 ng/mL and 1.62 ng/mL and 0.22 ng/mL and 0.44 ng/mL and 0.58 ng/mL and 0.18 ng/mL and 0.5 ng/mL and 0.78 ng/mL and 0.1 ng/mL and 1.64 ng/mL and 0.06 ng/mL and 0.26 ng/mL and 0.12 ng/mL and 0.42 ng/mL and 7.26 ng/mL and 7.8 ng/mL and 9.72 ng/mL and 5.64 ng/mL; Half-life, population-based pharmacokinetic model ([2]; US NHANES cross-sectional data 1999 to 2012): 3.7 years; Half-life by daily clearance (GM) ([2]; males and older females): 18 years; half-life ([2]; males and older females): exceeded 10 years; Half-life, 95% CI [2, 7]: 3.9–6.9 years; half-life [2, 7]: approximately 5 years; Serum concentration in 85 percent of the sampled Chinese population ([3]; general population): less than 100 ng mL^−1; Serum concentration, geometric mean ([3]; workers of the 3 M Company): 910 ng/mL; Clrenal values obtained from different sources, range [4]: 0.01 to 0.1 mL/day/kg
